Test results published in patent US20220409578A1, “FUNCTIONALIZED 1,3-BENZENE DIOLS AND THEIR METHOD OF USE FOR THE TREATMENT OF RADIATION DERMATITIS AND OTHER SKIN DISORDERS” (KANNALIFE SCIENCES, INC., priority 2019, published 2022).
One block for each molecule: values may come before it.

Key:
IL-8 = IL-8 release, nickel-induced allergy in human dermal microvascular endothelial cells (ELISA); assay type: cell-based; conditions: Homo sapiens, Endothelial cell; co-treatment with NiSO4, HDMECs; read-out: IC50 of IL-8 inhibition
Method: Dermal Microvascular endothelial cells of human origin were cultured in vitro using standard conditions (37° C., 95% v/v air, 5% v/v CO2). Human cells were selected as relevant to cell types within skin tissues for this development program. Cell culture methods are commonly used in non-clinical studies conducted on pharmaceutical products. […] Cells were cultured until the third and fourth passage and then acclimated for 24 hours before Nickel induction and dosing procedures. Cell treatment groups were identified using appropriate 96-well plates. The test and control articles were administered to medium containing 1 mM NiSO4 in triplicates. The negative control group received vehicle-only (0.1% v/v final) dose. A fixed 0.1 μL/well from 1000× stock dose volume was administered to 100 μL of media to each cell culture well on Day 2 and incubated for 6 hours at 37 degrees. These cell cultures were also utilized to determine the concentrations of test agent that were non-toxic after 24 hours of incubation.
Assay for Interleukin-8: Test material was applied in vitro for the ability to inhibit pro-inflammatory (IL-8) cytokine secretion by cultured HDMECs co-treated with Nickel (NiSO4). Clobetasol propionate was tested as positive control material for anti-inflammatory activity. The pro-inflammatory cytokine (IL-8) was quantified by enzyme-linked immunosorbent assay (ELISA) after inflammatory induction and incubation with test and control materials. Interleukin-8 levels in cell culture medium are markers of inflammation signaling by endothelial cells present in skin microvascular tissue in response to irritation. Interleukin-8 (IL-8) levels were assessed using BD Biosciences OptEIA™ Human IL-8 ELISA Set kit (Cat. No. 555244) and Reagent Set B (Cat. No. 550534) according to the manufacture's specifications. Absorbance was measured at 450 nm using plate reader and interleukin-8 levels were calculated from a standard curve.

[1] = Antioxidant capacity (ABTS/metmyoglobin assay); assay type: biochemical; conditions: OD 750 nm, 15 minutes after hydrogen peroxide
Method: Antioxidant capacity: The purpose of this study was to evaluate the overall antioxidant capacity of KLS-13022 for the ability to inhibit the oxidation of ABTS. (2,2′-Azino-di-[3-ethylbenzthiazoline sulphonate]) to ABTS.^+ by metmyoglobin. Ascorbic acid (Vitamin C) was used as positive antioxidant control in the assay. The testing involved the suppression of optical density (OD) at 750 nm to a degree, which is proportional to an effective oxidation inhibition. Neat solutions were prepared for materials formulated in HPLC-grade water (ascorbic acid) or 200-proof ethanol (KLS-13022). Serial dilutions were prepared for each material and mixed with metmyoglobin enzyme in assay buffer solution. All samples were compared to vehicle-only treated samples used as negative oxidation inhibition. Optical density changes at 750 nm were evaluated 15 minutes after addition of hydrogen peroxide to each sample. Average absorbance was calculated and plotted for each sample concentration. Effective antioxidant inhibition activity based on the change of absorbance of blank (vehicle-only) sample (no material added). […] The Antioxidant assay kit was obtained from Cayman Chemical Co. (Ann Arbor, Mich.). The assay consisted in the evaluation of the overall antioxidant capacity of test materials for the ability to inhibit the oxidation of ABTS. to ABTS.^+ by metmyoglobin. […]

[2] = test system: human 3D cornea-like EPIOCULAR; assay: Eye irritation, EPIOCULAR reconstructed cornea-like model, OECD 492 (MTT); assay type: cell-based; conditions: KLS-13022 up to 3% w/v in 60:40 ethanol:water; OECD 492
Method: Ocular irritancy: The purpose of this study was to evaluate any potential ocular irritation activity of KLS-13022 formulations compared to vehicle-only treated tissues in vitro on human 3D cornea-like EPIOCULAR by topical application according to OECD 492 protocol. Test formulations of KLS-13022 up to 3% w/v in 60:40 ethanol:water vehicle were prepared fresh before use. EPIOCULAR tissues were acclimated before treatments for 24 hours and later treated topically for 30 minutes with KLS-13022 (0.01, 0.1, 0.3 1, 3% w/v). Methyl acetate was used as positive eye irritant control. Tissue viability levels were measured by MTT reduction assay method after material treatments. The levels of tissue viability after each material treatment was compared to vehicle control group to determine any potential ocular irritation activity.
Average levels of tissue viability were calculated for each treatment group. According to OECD 492 protocol, predicted positive eye irritation activities were determined when obtaining <60% tissue viability. […] Primary cornea-like inserts were used from human origin and purchased from MatTek (Ashland, Mass.). […] Tissues were cultured with standard conditions (37° C., 95% v/v air, 5% v/v CO2) and acclimated for 18+3 hours before dosing procedures.

- IC50 (IL-8): ~0.5 µM
Compound: CCC(=O)O[C@]1(C(=O)CCl)[C@@H](C)C[C@H]2[C@@H]3CCC4=CC(=O)C=C[C@]4(C)[C@@]3(F)[C@@H](O)C[C@@]21C [Clobetasol propionate, reference compound]

- EC50 [1]: 39.7 µM
Compound: O=C1O[C@H]([C@@H](O)CO)C(O)=C1O [ascorbic acid, reference compound]

Compound: COC(C)=O [methyl acetate, Methyl acetate, reference compound]
- ocular irritancy potential [2]: strong eye irritant
